Experiments:
[1] = room temperature
[2] = system: oval cancer and malignant tumors of the uterus; settings: cited from earlier work
[3] = system: and malignant tumors of the uterus; settings: six patients, 100 mg orally twice daily; cited from earlier work

| Structure (SMILES) | water solubility [1] | infiltration in post-operational examination ([2]; examination one month later) | health of patients ([2]; six patients, 100 mg orally as 10% solution twice daily, tumors removed surgically) | toxic side effects ([2]; six patients, 100 mg orally twice daily) | exudate in the abdominal cavity or internal pelvic cavity [3] |
| --- | --- | --- | --- | --- | --- |
| O=C(O)CCCCCCCC(=O)O [azelaic acid] | 0.2% |  |  |  |  |
| N[C@@H](CC(=O)O)C(=O)O.[Ge] [germanium compound with aspartic acid] |  | None patients showed infiltration | noticeable improvement in health | no toxic side effects | five patients did not show exudate |
